Values of other authors as cited in PubChem BioAssay AID1259410 (Chemical Carcinogenesis Research Information System (CCRIS), 2018).

System: rodent tumor promotion studies, tumor incidence
Experiment: CCRIS tumor promotion studies

## CCCC[C@@H](C)[C@@H](OC(=O)C[C@@H](CC(=O)O)C(=O)O)[C@H](C[C@@H](C)C[C@H](O)CCCC[C@@H](O)C[C@H](O)[C@H](C)N)OC(=O)C[C@@H](CC(=O)O)C(=O)O
Doses [Carcinogen]: 100 PPB IN WATER FOR 30 MIN, Doses [Promoter]: 0, 23, 104 PPM IN DIET FOR 42 WK BEGINNING 1 MO POST CARCINOGEN TREATMENT (STUDY DURATION: 64 WK), Doses [Promoter]: 0, 23, 104 PPM IN DIET FOR 42 WK BEGINNING 1 MO POST CARCINOGEN TREATMENT (STUDY DURATION: 64 WK), Route [Carcinogen]: IMMERSION, Route [Promoter]: ORAL, Species: FISH, Strain/Sex: SHASTA RAINBOW TROUT/MALE,FEMALE
  outcome: liver: tumor

## CCCCCCCCCc1ccc(O)cc1
Carcinogen: 2',3-dimethyl-4-aminobiphenyl, 13394-86-0, Doses [Carcinogen]: 50 mg/kg every other wk for 10 injections from 7 wks of age, study duration 64 wks, Doses [Promoter]: 0, 25, 250, 2000 ppm in diet from 3 wks of age for 3 wks, Route [Carcinogen]: Subcutaneous, Route [Promoter]: Oral, Species: Rat, Strain/Sex: F344/Male (15-20/Group)
  outcome: prostate: adenocarcinoma, no effect

## O=C1[C@H]2CC=CC[C@H]2C(=O)N1SC(Cl)(Cl)Cl
Carcinogen: DIETHYLNITROSAMINE, 55-18-5, N-METHYL-N-NITROSOUREA, 684-93-5, N-BIS(2-HYDROXYPROPYL)NITROSAMINE, 53609-64-6, Carcinogen: DIETHYLNITROSAMINE, 55-18-5, N-METHYL-N-NITROSOUREA, 684-93-5, N-BIS(2-HYDROXYPROPYL)NITROSAMINE, 53609-64-6, Doses [Carcinogen]: 100 MG/KG DEN ONCE THEN 20 MG/KG MNU 2/WK FOR 2 WK FOLLOWED BY 0.1% DHPN IN DRINKING WATER FOR 2 WK, Doses [Promoter]: 0, 4000 PPM IN DIET BEGINNING POST CARCINOGEN TREATMENT AND CONTINUING FOR 16 WK (STUDY DURATION: 20 WK), Route [Carcinogen]: INTRAPERITONEAL, INTRAPERITONEAL, ORAL, Route [Carcinogen]: INTRAPERITONEAL, INTRAPERITONEAL, ORAL, Route [Promoter]: ORAL, Species: RAT, Strain/Sex: F344/MALE
  outcome: kidney: adenoma

## CN[C@@H]1C[C@H]2O[C@@](C)([C@@H]1OC)n1c3ccccc3c3c4c(c5c6ccccc6n2c5c31)C(=O)NC4
Carcinogen: 7,12-DIMETHYLBENZ[A]ANTHRACENE, 57-97-6, Doses [Carcinogen]: 100 UG IN 100 µL ACETONE TO THE DORSAL SKIN ONCE, Doses [Promoter]: 0, 10, 50 UG IN 100 µL ACETONE TO THE DORSAL SKIN 2/WK FOR 29 WK BEGINNING 1 WK POST CARCINOGEN DOSE (STUDY DURATION: 30, Doses [Promoter]: 0, 10, 50 UG IN 100 µL ACETONE TO THE DORSAL SKIN 2/WK FOR 29 WK BEGINNING 1 WK POST CARCINOGEN DOSE (STUDY DURATION: 30, Route [Carcinogen]: DERMAL, Route [Promoter]: DERMAL, Species: MOUSE, Strain/Sex: CD-1/FEMALE
  outcome: skin: tumor

## O=[As](O)(O)O
Carcinogen: 7,12-DIMETHYLBENZ[A]ANTHRACENE [57-97-6], Doses [Carcinogen]: 50 UG 2 X A WK FOR 2 WKS (STUDY DURATION: 25 WKS), Doses [Promoter]: 25 MG/L IN DRINKING WATER FOR 25 WKS, Route [Carcinogen]: DERMAL (SKIN PAINTING), Route [Promoter]: ORAL (DRINKING WATER), Species: MOUSE, Strain/Sex: SWISS NUDE HAIRLESS/MALE
  outcome: skin; papillomas

## CC(C)(C)c1ccc(O)c(O)c1
Carcinogen: N-METHYL-N'-NITRO-N-NITROSOGUANIDINE, 70-25-7, Doses [Carcinogen]: 150 MG/KG IN DMSO ONCE, Doses [Promoter]: 0, 1.5% IN DIET FOR 51 WK BEGINNING 1 WK AFTER CARCINOGEN DOSE (STUDY DURATION: 52 WK), Route [Carcinogen]: GAVAGE, Route [Promoter]: ORAL, Species: RAT, Strain/Sex: F344/MALE
  outcome: forestomach: squamous cell carcinoma

## CC(O)CN(C)N=O (stereo unspecified)
Carcinogen: 1-NITRO-1,3-DIMETHYLUREA, 13256-32-1, Doses [Carcinogen]: 10 MG/ML IN ETHYL ACETATE/CORN OIL (1:1) 1/WK FOR 2 WK, Doses [Promoter]: 0, 20 MG/L IN DRINKING WATER 5D/WK FOR 40 WK BEGINNING 1/WK POST CARCINOGEN TREATMENT (STUDY DURATION: 43 WK), Route [Carcinogen]: GAVAGE, Route [Promoter]: ORAL, Species: RAT, Strain/Sex: F344/MALE
  outcome: kidney: nephroblastoma
Carcinogen: 1-NITROSO-1,3-DIETHYLUREA, 49540-32-1, Doses [Carcinogen]: 12 MG/ML IN ETHYL ACETATE/CORN OIL (1:1) 1/WK FOR 2 WK, Doses [Promoter]: 0, 20 MG/L IN DRINKING WATER 5 D/WK FOR 40 WK BEGINNING 1/WK POST CARCINOGEN TREATMENT (STUDY DURATION: 43 WK), Route [Carcinogen]: GAVAGE, Route [Promoter]: ORAL, Species: RAT, Strain/Sex: F344/MALE
  outcome: thyroid: adenocarcinoma; lung: adenocarcinoma; kidney: nephroblastoma
Carcinogen: NITROSOBIS(2-OXOPROPYL)AMINE, 60599-38-4, Doses [Carcinogen]: 12 MG/ML IN ETHYL ACETATE/CORN OIL (1:1) 2/WK FOR 2 WK, Doses [Promoter]: 0, 20 MG/L IN DRINKING WATER 5D/WK FOR 40 WK BEGINNING 1/WK POST CARCINOGEN TREATMENT (STUDY DURATION: 43 WK), Route [Carcinogen]: GAVAGE, Route [Promoter]: ORAL, Species: RAT, Strain/Sex: F344/MALE
  outcome: kidney: renal cell carcinoma

## CC[C@@H](C)[C@H](NC(=O)CN)C(=O)N[C@H](C(=O)N[C@@H](CCC(=O)O)C(=O)N[C@@H](CCC(N)=O)C(=O)N[C@H]1CSSC[C@H]2NC(=O)[C@H]([C@H](C)CC)NC(=O)[C@H](CO)NC(=O)[C@H]([C@H](C)O)NC(=O)[C@H](CSSC[C@H](NC(=O)[C@H](CC(C)C)NC(=O)[C@H](Cc3c[nH]cn3)NC(=O)[C@H](CCC(N)=O)NC(=O)[C@@H](NC(=O)[C@@H](NC(=O)[C@@H](N)Cc3ccccc3)C(C)C)C(N)=O)C(=O)NCC(=O)N[C@@H](CO)C(=O)N[C@@H](Cc3c[nH]cn3)C(=O)N[C@@H](CC(C)C)C(=O)N[C@@H](C(C)C)C(=O)N[C@@H](CCC(=O)O)C(=O)N[C@@H](C)C(=O)N[C@@H](CC(C)C)C(=O)N[C@@H](Cc3ccc(O)cc3)C(=O)N[C@@H](CC(C)C)C(=O)N[C@@H](C(C)C)C(=O)N[C@H](C(=O)NCC(=O)N[C@@H](CCC(=O)O)C(=O)N[C@@H](CCCNC(=N)N)C(=O)NCC(=O)N[C@@H](Cc3ccccc3)C(=O)N[C@@H](Cc3ccccc3)C(=O)N[C@@H](Cc3ccc(O)cc3)C(=O)N[C@H](C(=O)N3CCC[C@H]3C(=O)N[C@@H](CCCCN)C(=O)N[C@H](C(=O)O)[C@H](C)O)[C@H](C)O)CSSC[C@@H](C(=O)N[C@@H](CC(N)=O)C(=O)O)NC(=O)[C@H](Cc3ccc(O)cc3)NC(=O)[C@H](CC(N)=O)NC(=O)[C@H](CCC(=O)O)NC(=O)[C@H](CC(C)C)NC(=O)[C@H](CCC(N)=O)NC(=O)[C@H](Cc3ccc(O)cc3)NC(=O)[C@H](CC(C)C)NC(=O)[C@H](CO)NC2=O)NC1=O)C(C)C
Carcinogen: 7,12-DIMETHYLBENZ[A]ANTHRACENE, 57-97-6, Doses [Carcinogen]: 20 MG IN 4 ML OLIVE OIL ONCE, Doses [Promoter]: 0, 10 I.U./D BEGINNING 4 WK POST CARCINOGEN DOSE AND CONTINUING FOR DURATION OF STUDY (STUDY DURATION: 6 MO), Route [Carcinogen]: GAVAGE, Route [Promoter]: SUBCUTANEOUS, Species: RAT, Strain/Sex: SWISS/FEMALE
  outcome: mammary gland: tumor

## O=c1cc(-c2ccccc2)oc2ccc3ccccc3c12
Carcinogen: (+/-)-TRANS-7,8-DIHYDROBENZO[A]PYRENE-7,8-DIOL, 61443-57-0, Doses [Carcinogen]: 1 UG CO-ADMINISTERED WITH PROMOTER DOSE, Doses [Promoter]: 1 UG INJECTED INTO NEWLY HATCHED SAC-FRY CO-ADMINISTERED WITH CARCINOGEN DOSE (STUDY DURATION: 9 MO), Route [Carcinogen]: INJECTION, Route [Promoter]: INJECTION, Species: FISH, Strain/Sex: RAINBOW TROUT/MALE,FEMALE
  outcome: liver: tumor
Carcinogen: DIETHYLNITROSAMINE, 55-18-5, Doses [Carcinogen]: 200 MG/KG BW ONCE (STUDY DURATION: 28 WK), Doses [Promoter]: 1% IN DIET FOR 26 WK BEGINNING 2 WK POST LAST CARCINOGEN DOSE, 2/3 PARTIAL HEPATECTOMY PERFORMED AT WEEK 3 (STUDY DURATI, Route [Carcinogen]: INTRAPERITONEAL, Route [Promoter]: ORAL, Species: RAT, Strain/Sex: F344/MALE
  outcome: liver: tumor
Doses [Carcinogen]: 0.5 PPM AQUEOUS SOLUTION FOR 30 MIN EXPOSURE OF EMBRYOS 21 D AFTER FERTILIZATION, Doses [Promoter]: 0.05% IN DIET FOR 8 WK (STUDY DURATION: 1 YR), Route [Carcinogen]: IMMERSION, Route [Promoter]: ORAL, Species: FISH, Strain/Sex: MT. SHASTA RAINBOW TROUT
  outcome: liver: hepatocellular carcinoma or mixed carcinoma or hepatocellular adenoma

## CCC1(CCCCCCCCCCCCC(=O)OC2C(C)C3(O)C(C=C(CO)CC4(O)C(=O)C(C)=CC43)C3C(C)(C)C23OC(C)=O)OCC(C)(C)N1[O] (stereo unspecified)
Carcinogen: 7,12-DIMETHYLBENZ[A]ANTHRACENE, 57-97-6, Doses [Carcinogen]: 100 NMOL ONCE, Doses [Promoter]: 0, 20 NMOL 2/WK FOR 24 WK BEGINNING 1 WK POST CARCINOGEN DOSE (STUDY DURATION: 25 WK), Route [Carcinogen]: DERMAL, Route [Promoter]: DERMAL, Species: MOUSE, Strain/Sex: NMRI/FEMALE
  outcome: skin: tumor

## Cc1nccc2c1[nH]c1ccccc12
Carcinogen: N-ETHYL-N-HYDROXYETHYLNITROSAMINE, 13147-25-6, Doses [Carcinogen]: 0.1% IN DRINKING WATER FOR 2 WK, Doses [Promoter]: 0, 1000 PPM IN DIET BEGINNING 1 WK POST CARCINOGEN TREATMENT AND CONTINUING FOR 23 WK (STUDY DURATION: 26 WK), Route [Carcinogen]: ORAL, Route [Promoter]: ORAL, Species: RAT, Strain/Sex: F344/MALE
  outcome: kidney: adenoma

## CC(C)(c1cc(Br)c(O)c(Br)c1)c1cc(Br)c(O)c(Br)c1
Carcinogen: N-bis(2-hydroxypropyl)nitrosamine, 53609-64-6, Doses [Carcinogen]: 0.08 and 0.2% in drinking water for 4 wks at 7-10 wks of age, study duration to 39 wk of age, Doses [Promoter]: In utero (0.01, 0.1, or 1% in diet of dams) and then in drinking water of weaned offspring for 2 wk, Route [Carcinogen]: Oral, Route [Promoter]: In utero and in drinking water, Species: Rat, Strain/Sex: F344/Male (12-15/group)
  outcome: none found
